The test system of one assay is closed comedones. As to the kind of experiment: Cream to treat closed comedones. It counts as in vivo, human. The following applies: cream 0.1 mg/g, morning and evening. As to the method: Compound B (10 mg; see Example 1 above) was first dissolved in WFI (10 g).
A mixture was then made comprising sorbitan stearate (2 g), cetyl alcohol (4 g), octanoic/capric glyceride (6 g) and glyceryl monostearate (3 g) (all Sinopharm Chemical Reagent Co. Ltd.), which was stirred and heated to 85° C. to melt the mixture completely.
Glycerin (5 g; Sinopharm Chemical Reagent Co. Ltd.) and ammonium acryloyldimethyltaurate/VP copolymer (0.13 g; Clariant Chemical (Guangzhou) Co., Ltd., China) were mixed with 68.86 g of WFI. This mixture was stirred and heated to 85° C. to provide a homogeneous colloidal suspension.
The copolymer/water mixture was added to the sorbitan stearate-containing mixture, which was then quickly stirred using emulsification equipment for 5 minutes. The resultant emulsion was cooled to room temperature.
The Compound B solution was then added to the resultant mixture with stirring to obtain the finished cream. The concentration of Compound B in the final cream was 0.1 mg/g.
Subjects with closed comedones (blocked pores) and in an acute attacking period of acne were enrolled in the study. Symptoms included sebaceous glands blocked by keratinocytes, forming a slightly hard lump and a protruding white head.
The cream was evenly smeared in the morning and evening after facial cleansing.

Assay [1] has as its system bleomycin-induced pulmonary fibrosis. As to the kind of experiment: Idiopathic pulmonary fibrosis (IPF) model. It counts as in vivo, Sprague Dawley rats. Further details: lung coefficient: unit not given here. As to the method:
Experimental animals and grouping: 40 adult male Sprague Dawley rats, after 7 days of adaptive feeding, were divided into 4 groups: sham-operation group (Sham), IPF model group (no treatment; Model), test group (Compound B) and positive control group (Positive Control).
The test were administered Compound B, at a dose of 130 μg/rat, which was introduced by aerosolized inhalation. Oral administration of pirfenidone (Etuary®, Beijing Continent Pharmaceutical Co., Ltd., Beijing, China) as a 120 mg/kg single-bolus dose served as the positive control.
A pulmonary fibrosis model was established by intratracheal instillation of bleomycin. The rats were anaesthetised and placed on an operating table in the supine position, to expose the trachea. Bleomycin (5 mg/kg) saline solution was injected into the trachea through the gap between the tracheal cartilage rings. The sham-operation group were given an equal volume of normal saline. Shortly after administration, the rats were lifted vertically and were rotated, in order to evenly disperse the drug. Once the rats had recovered, after approximately 5 days, they were administrated the different drugs according to the plan for 28 days, consecutively.
The exhaust volume of the atomizing device was 0.15 mL per minute. The inhalation time for each rat was 1 minute.
At Day 29 following drug administration, rats were anesthetized by i.p. injection of chloral hydrate. After orbital blood collection, the rats were sacrificed. The thoracic cavity was quickly opened and the lung was collected for further analysis. The lung wet weight was measured, and the lung coefficient was calculated (lung wet weight/rat weight×1000). The tissue was stored in refrigerator at −80° C. for further use.
A piece of lung tissue was accurately weighed, and 9 times the weight of saline was added. Then, the tissue was homogenized and centrifuged for 10 minutes at 3000 rpm. The homogenate was used to detect the expression of the transformation growth factor (TGF-β1), tumor necrosis factor-α (TNF-α) and alpha-smooth muscle actin (α-SMA). Standard ELISA methods were used for the detection. The contents of malonaldehyde (MDA) and the activity of superoxide dismutase (SOD) in lung tissue were also detected.

Another assay concerns ammonia induced cough. As to the kind of experiment: Antitussive experiment, ammonia induced cough method. The format is in vivo, ICR mice. The protocol: 36 ICR mice were randomly divided into 3 groups according to their body weight, labelled a CMC-Na (Negative) control group, a dextromethorphan hydrobromide (Positive) control group and a Compound B (B) group. Each group contained 12 mice, with 6 males and 6 females in each.
Compound B was administered via atomization inhalation using a YLS-8A Multifunctional cough and sputum inducing device (Jinan Yiyan Science and Technology Co., Ltd.) (0.15 ml/min) for 1 minute, once daily for 5 days. And the positive control drug was administered once daily by intragastric administration at 10 mg/kg for 5 days.
The mice were placed in an inverted beaker 1, 2, and 4 hours after the last drug administration. 1 mL of aqueous ammonia (25.0 to 28.0%) was placed on top of a boiling water bath and was evaporated into the beaker.
The time for mice to receive ammonia exposure was determined by a method characterized by analyzing data immediately after one test or a batch of tests. The results of the previous analysis determined how to conduct the next test or batch of tests.
The difference between the logarithmic value of two adjacent time periods was 0.1.
The number of coughs within 1 minute was detected using a stethoscope. If a mouse coughed three or more times over one minute, this was labelled as called ‘cough’, and less than three times in one minute was labelled ‘cough free’.
The EDT50 was defined as the ammonia stimulating time at which half mice developed a “cough”, calculated by the equation: […]
(c equals the sum of r and x, r is the number of animals in each stimulating time group, x is the logarithm of stimulation time and n was the number of animals in each group). lg is a base 10 logarithmic value.
In Table 15, R is the EDT50 in treatment group divided by the EDT50 in the Control group expressed as a percentage.

The next assay deals with common cold. The assay can be described thus: Liquid spray to treat common cold. It counts as in vivo, human. As to the method: Compound B was dissolved in Injection water (WFI; from a TC-RO-0.25 T/h-2 water treatment system, Yangzhou Tiancheng Water Treatment Devices & Engineering Co., Ltd., Yangzhou, China). The concentration was 0.5 mg/mL. 5 mL was loaded into a plastic water spray bottle.
The enrolled subject in the study was inflicted with a common cold for 2 days prior to treatment. Other cold treatments were not used before treatment. The subject, who presented a cough, a sore throat and a loss of voice, was required to use the liquid spray (3 to 5 presses each time, in the morning and evening.

Assay [2] concerns operation pain during laser surgery. The assay can be described thus: Liquid spray to relieve operational pain during laser surgery. The format is in vivo, human. The protocol: The enrolled subject was required to use 1 mL of a liquid spray comprising the same formulation as that described in Example 14 above in a water spray bottle on half of their face before and after a lattice laser operation to remove of facial melanin.

Setting [3] is: lung tissue homogenate, Day 29, Compound B 130 μg/rat aerosolized inhalation, pirfenidone gavage, 28 days.

The record followed here is US20250041377A1, “PHARMACEUTICAL USE” (ENLITISA (SHANGHAI) PHARMACEUTICAL CO., LTD., priority 2018, published 2025).

Where a SMILES comes first, the peptide text is derived from it. [ ]: non-standard residue; d: D form. Hyp = O=C(O)[CH]1C[CH](O)CN1

`CC(N)C(=O)NC(CCCCN)C(=O)N1CCCC1C(=O)NC(CO)C(=O)NC(Cc1ccc(O)cc1)C(=O)N1CC(O)CC1C(=O)N1CC(O)CC1C(=O)NC(C(=O)NC(Cc1ccc(O)cc1)C(=O)NC(CCCCN)C(=O)O)C(C)O` (stereo not drawn) [Compound B, Ala-Lys-Pro-Ser-Tyr-Hyp-Hyp-Thr-Tyr-Lys] (H-AKPSY[Hyp][Hyp]TYK-OH; configuration not given here): the “lumps of closed comedones” value in the assay on closed comedones was “disappeared after 1 day of use”. Further, in assay [1] (compared with pirfenidone), the “inhibition of production of TNF-α, α-SMA and TGF-β1 in lung tissue” value is recorded as “almost equivalent to that of the known IPF drug, pirfenidone”. The TGF-β1 in assay [1] (setting [3]) came to 0.40 ± 0.02 ng/mg protein. The compound further gave a TNF-α in assay [1] (setting [3]) of 187.91 ± 12.20 pg/mg protein. The same compound had a α-SMA in assay [1] (setting [3]) of 10.85 ± 1.42 pg/mg protein. Further, in assay [1] (lung tissue, Day 29), the MDA is listed as 0.17 ± 0.04 U/mg protein. The compound also came in with an SOD in assay [1] (lung tissue, Day 29) of 48.64 ± 1.85 U/mg protein. Also, the lung coefficient in assay [1] (lung wet weight/rat weight×1000, Day 29) came out at 5.14 ± 0.37. For the same compound, the R with ammonia induced cough (1 hour after admin., EDT50 in treatment group divided by EDT50 in Control group) was 131.7%; in the assay on ammonia induced cough (2 hours after admin., EDT50 treatment/Control) it was 131.8%; with ammonia induced cough (4 hours after admin., EDT50 treatment/Control), 100 [???] %. For the same compound, the EDT50 in the assay with ammonia induced cough (1 hour after last administration, B 195 μg/mouse atomization inhalation, Positive 10 mg/kg intragastric, once daily 5 days) worked out at 28.2 s; in the assay with ammonia induced cough (2 hours after last administration), 28.2 s; in the assay on ammonia induced cough (4 hours after last administration) it was 26.9 s. Also, the “effect on cough relief” value in the assay on ammonia induced cough (at 1 and 2 hours) was “positive effect on cough relief”. Moreover, the throat pain result with common cold (liquid spray 0.5 mg/mL in WFI, 3 to 5 presses morning and evening, after the first use) is reported as “throat pain was relieved after the first use”. In addition, the “throat pain and voice” value with common cold (liquid spray 0.5 mg/mL, after the second use) was “throat was no longer painful and could speak”. Moreover, the “pain during lattice laser operation” value in assay [2] (1 mL liquid spray 0.5 mg/mL on half of face before and after operation) was “did not feel pain during the operation”. For the same compound, in assay [2] (sprayed half of face, unsprayed half: pain lasted about 2 hours), the “pain after lattice laser operation” value is “felt no pain after the operation”.
